# Source: paper PMC10778626, “Efficacy of Novel Quaternary Ammonium and Phosphonium Salts Differing in Cation Type and Alkyl Chain Length against Antibiotic-Resistant Staphylococcus aureus” (International Journal of Molecular Sciences, 2023)
# Read-outs that look alike come from different tables or passages of the source.
# What was measured:
# [1] = parameters: method as in earlier work; settings: standard mixture for the calibration line; cited from earlier work
# [2] = Chromatographic hydrophobicity index (CHI) by UHPLC; assay type: physicochemical; settings: for CHI: LC/UV at pH 2.6, calculated from retention time with the calibration line; for chromatographic logP: back-calculated from CHI at pH 2.6: CHI LogP = 0.047 × CHI + 0.36 × HBC − 1.10
# Protocol: The chromatographic hydrophobicity index (CHI) values were determined using the retention times (tR) of the samples under study and of a mixture of standard compounds on a UHPLC NEXERA SERIES LC-40 with a Luna C18 (2) column of 150 × 4.6 mm, 5 μm (Phenomenex, Torrance, CA, USA). Stock solutions of the test compounds (10 mM) were prepared in dimethyl sulfoxide (DMSO, 99.9%; Carlo Erba) and diluted in acetonitrile/water (1:1) to obtain a final concentration of 500 μM. The mobile phase A was 1.0% (v/v) aqueous acetic acid solution (pH = 2.6), and the mobile phase B was acetonitrile. The following gradient programme was applied: 1–7 min 0–100% B, 7–17 min 100% B, 17–19 min 100–0% B, 1 mL/min flow; rt, injection volume 40 μL.
# A calibration line was obtained using a mixture of the following compounds: benzimidazole, theophylline, paracetamol, caffeine, colchicine, carbamazepine, indole, propiophenone, butyrophenone, valerophenone, and heptanophenone (Table S1 and Figure S50, Supplementary Materials). The experimental CHI values of the compounds tested at pH 2.6 were then converted to the logarithm of octanol/water partition coefficient (CHI LogP) values using Equation (1). CHI LogP = 0.047 × CHI + 0.36 × HBC − 1.10 (1) where HBC is the hydrogen bond donor count.
# S. aureus CECT 976 [3] = assay: MIC/MBC by broth microdilution, S. aureus CECT 976; assay type: cell-based; settings: Staphylococcus aureus, CECT976; for MIC: 24 h, 37 °C, read-out: MIC
# Protocol: (§1) The minimum inhibitory concentration (MIC) and minimum bactericidal concentration (MBC) values of all QHSs were determined by the broth microdilution method, according to the approved M7-A7 (aerobes) standards of the Clinical and Laboratory Standards Institute (CLSI) guidelines. Overnight cell cultures of S. aureus, in the exponential phase of growth, were adjusted to an optical density (OD) of 0.132 ± 0.02 (λ = 600 nm). Then, a volume of 180 µL of the cell suspension was added to sterile, flat, clear-bottomed polystyrene (PS) 96-well microtiter plates (VWR—Radnor, PA, USA), already containing 20 µL of each QHS under study at concentrations ranging from 0.0625 to 64 µg/mL. In the end, the volume of each compound never exceeded 10% (v/v) of the well volume. Microtiter plates were then incubated for 24 h at 37 °C under agitation (150 rpm; INCU-Line IL 150R incubator). Absorbance measurements were performed at the beginning (t = 0 h) and end (t = 24 h) of the incubation period using a microtiter plate absorbance reader (BMG LABTECH FLUOstar Omega). Bacterial suspensions with DMSO and without QHSs were used as negative controls. […] All tests were performed with six replicates and a minimum of three independent repeats.
# Plates were incubated at 37 °C for 24 h, and growth was visually inspected. […] All tests were performed in triplicate, and with a minimum of three independent repeats.
# S. aureus XU212 = assay: MIC/MBC by broth microdilution, S. aureus XU212; assay type: cell-based; settings: Staphylococcus aureus
# Protocol: (§2) S. aureus CECT 976, obtained from the Spanish Type Culture Collection, was used as the standard susceptibility testing control strain. This strain has been previously employed in diverse studies to validate the antimicrobial effects of novel molecules. Additional antibiotic-resistant strains, S. aureus XU212, SA1199B, and RN4220, generously provided by S. Gibbons (University College London, London, UK) were tested. […] The SA1199B strain is characterized by its resistance to fluoroquinolones due to the overexpression of the NorA efflux pump and its ciprofloxacin resistance.
# as §1
# (§3) Plates were incubated at 37 °C for 24 h, and growth was visually inspected. The MBC was determined as the lowest concentration of compound in which the total inhibition of growth on solid medium was observed (no colony forming units (CFUs) were detected). All tests were performed in triplicate, and with a minimum of three independent repeats.
# S. aureus SA1199B = assay: MIC/MBC by broth microdilution, S. aureus SA1199B; assay type: cell-based; settings: Staphylococcus aureus
# Protocol: as §2, §1, §3
# S. aureus RN4220 = assay: MIC/MBC by broth microdilution, S. aureus RN4220; assay type: cell-based; settings: Staphylococcus aureus
# Protocol: as §2, §1, §3
# S. aureus CECT 976 [4] = assay: Quantitative suspension test, dose-response against planktonic bacteria; assay type: cell-based, Staphylococcus aureus; settings: S. aureus CECT 976; 30 min exposure
# Protocol: A quantitative suspension test to explore the dose–response relationships of QHSs by evaluating bactericidal activity was performed. For this method, overnight grown cultures were centrifuged (VWR Mega Star 600R) at 3772× g for 10 min and washed twice with phosphate-buffered saline (PBS; 1.44 g/L of […]—Labkem, Barcelona, Spain; 8 g/L of sodium chloride, 0.2 g/L of potassium chloride, and 0.24 g/L of potassium dihydrogen phosphate—VWR, Leuven, Belgium) at pH 7.4. The collected cells were resuspended in PBS and adjusted to an optical density (OD) of 0.132 ± 0.02 (λ = 600 nm). Afterwards, 100 µL of this cell suspension was aseptically transferred to 800 µL of DW and allowed to stand for 2 min. To this mixture, 100 µL of each QHS solution diluted in DMSO at the desired concentration was added. The dose–response evaluation took place for 30 min at 37 °C. In the case of the negative control (untreated cells), the QHS solution was replaced by an equal volume of DMSO or DW. At the end of the contact time, QHS neutralization was performed through the dilution-neutralization method using a universal neutralizer (1 g/L L-histidine (Merck—Tokyo, Japan), 3 g/L lecithin (Alfa Aesar—Karlsruhe, Germany), 5 g/L sodium thiosulphate (Labkem—Barcelona, Spain), 30 g/L saponin (VWR Chemicals—Leuven, Belgium), and 30 g/L polysorbate 80 (VWR Chemicals—Le Havre, France) in 0.0025 M phosphate buffer). For neutralization, the test blend (100 µL) was added to 800 µL sterile aqueous neutralizing solution and 100 µL of DW. The mixture was gently agitated and allowed to stand for 10 min, after which serial dilutions (up to 10^−5) in sterile saline solution (0.85% w/v NaCl) were prepared. Then, 10 µL of each serial dilution was plated into Petri dishes containing PCA by the drop-plating method. The plates were allowed to set, then inverted and placed in an incubator at 37 °C for 24 h. The surviving cells on the QHS neutralized samples were determined by CFU counting on each plate, ensuring the counting of dilution plates that gave between 10 and 100 CFUs. The antibacterial activity was evaluated by quantification of logarithmic reduction (log CFU/mL), according to Equation (2). log CFU/mL reduction = log (X) − log (X0), (2) where X0 and X are the counts of CFU/mL before (untreated control cells) and after quaternary salt exposure, respectively.
# The QHS concentrations chosen for conducting the dose–response tests comprise of the MBC, which causes the complete reduction of planktonic cells, as well as lower concentrations. Specifically, compound 1e was evaluated at concentrations of 0.25, 0.5, 0.75, 1, 2, 4, 8, and 16 µg/mL, compound 7e at concentrations of 1, 2, 3.2, 3.5, 4, 8, and 16 µg/mL, compound 5e at concentrations of 0.5, 1, 1.3, 1.6, 2, 4, and 8 µg/mL, and compound 3e at concentrations of 0.5, 0.75, 1, 1.3, 1.6, 2, 4, and 8 µg/mL. In the case of compounds 2e, 6e, and 4e, concentrations tested were 0.5, 1, 1.6, 2, 4, and 8 µg/mL. All tests were performed in duplicate, and with a minimum of three independent repeats.
# The Chick–Watson mathematical model, provided in Equation (3), is considered an adequate approach to validate the kinetics of dose–response data. log X/X0 = − Kdis C^n t (3) where X0 and X are the counts of CFU/mL before and after quaternary salt exposure, respectively; Kdis is a killing rate coefficient ((mL.µg^−1)^n.min^−1); C is the quaternary salt concentration (µg.mL^−1); n is the concentration exponent and t is the exposure time (min). The concentration dependence of killing (n) was determined using a toolbox for linear regression in GraphPad Prism (version 8.4.0, GraphPad Software, La Jolla, CA, USA). The quality of the model was evaluated through the regression coefficient (R^2).
# HepG2 cells = assay: Cytotoxicity by neutral red (NR) uptake; assay type: cell-based, human; settings: HepG2, 24 h
# Protocol: The evaluation of the cytotoxicity effects of QHSs was performed using hepatocellular carcinoma (HepG2) cells. […] The cells used for all experiments were taken between the 9th and 13th passages, to avoid phenotypic changes.
# The cytotoxicity profile of the compounds under study was evaluated in HepG2 cells (2.5 × 10^5 cells/mL) seeded in 96-well plates. […] Control experiments were performed for viability endpoints by adding the vehicle (medium with 0.1% DMSO) instead of the compound solution.
# In the NR uptake assay, following a 24 h incubation period with the test compounds, the cell culture medium was aspirated, and fresh medium containing 150 µL of the dye (at a concentration of […]) was added to the cells. […] After incubation, the cell culture medium was discarded, and a mixture of absolute ethanol and distilled water (1:1) containing 5% acetic acid was added to extract the dye accumulated within the lysosomes of viable cells. The absorbance at 540 nm was measured using a microplate reader (Synergy HTX Multi-Mode Reader—BioTek, Winooski, VT, USA).
# For all assays, results are expressed as a percentage of the control (nontreated cells), taken as 100%.
# S. aureus CECT 976 [5] = system: S. aureus CECT 976; parameters: method as in Abreu et al. [44]; settings: antibiotics, broth microdilution, ref Abreu et al. [44]; cited from earlier work
# [6] = S. aureus CECT 976, broth microdilution
# [7] = S. aureus CECT 976, broth microdilution, plated on PCA, read-out: MBC
SMILES,CHI0 pH 2.6 [1],CHI [2],MIC (S. aureus CECT 976 [3]; [6]),MBC (S. aureus CECT 976 [3]; [7]),further results
c1ccc2[nH]cnc2c1 [Benzimidazole],6.300,–,–,–,–
CCCC(=O)c1ccccc1 [Butyrophenone],87.30,–,–,–,–
Cn1c(=O)c2c(ncn2C)n(C)c1=O [Caffeine],23.41,–,–,–,–
NC(=O)N1c2ccccc2C=Cc2ccccc21 [Carbamazepine],60.42,–,–,–,–
COc1cc2c(c(OC)c1OC)-c1ccc(OC)c(=O)cc1[C@@H](NC(C)=O)CC2 [Colchicine],43.90,–,–,–,–
"CCCCCCCCCCCCCCCCCC[n+]1cccc2ccccc21.[Br-] [Compound 5g, 1-Octadecylquinolin-1-ium bromide]",–,112.9,16 µg/mL,16 µg/mL,chromatographic logP [2]: 4.21
"CCCCCC[n+]1ccccc1.[Br-] [Compound 6a, 1-Hexylpyridin-1-ium bromide]",–,27.07,> 64 µg/mL,> 64 µg/mL,chromatographic logP [2]: 0.172
"CCCCCCCC[n+]1ccccc1.[Br-] [Compound 6b, 1-Octylpyridin-1-ium bromide]",–,40.78,> 64 µg/mL,> 64 µg/mL,chromatographic logP [2]: 0.817
"CCCCCCCCCC[n+]1ccccc1.[Br-] [Compound 6c, 1-Decylpyridin-1-ium bromide]",–,53.07,32 µg/mL,> 64 µg/mL,chromatographic logP [2]: 1.4
"CCCCCCCCCCCC[n+]1ccccc1.[Br-] [Compound 6d, 1-Dodecylpyridin-1-ium bromide]",–,65.58,2 µg/mL,8 µg/mL,–
"CCCCCCCCCCCCCCCC[n+]1ccccc1.[Br-] [Compound 6f, 1-Hexadecylpyridin-1-ium bromide]",–,94.47,–,–,chromatographic logP [2]: 3.34; MBC (S. aureus CECT 976 [3]): 8 µg/mL
"CCCCCCCCCCCCCCCCCC[n+]1ccccc1.[Br-] [Compound 6g, 1-Octadecylpyridin-1-ium bromide]",–,108.1,8 µg/mL,16 µg/mL,chromatographic logP [2]: 3.98
"CCCCCCCCCCCCCC[N+](CC)(CC)CC.[Br-] [Compound 7e, N,N,N-Triethyltetradecan-1-aminium bromide]",–,–,2 µg/mL,16 µg/mL,"MBC (S. aureus XU212): 32 µg/mL; MIC (S. aureus XU212): 32 µg/mL; MBC (S. aureus SA1199B): 32 µg/mL; MIC (S. aureus SA1199B): 16 µg/mL; MBC (S. aureus RN4220): 8 µg/mL; MIC (S. aureus RN4220): 4 µg/mL; concentration inducing reductions in S. aureus log CFU/mL > 5 (S. aureus CECT 976 [4]): 3.4 μg/mL; NR uptake (lysosomal activity), % of control (HepG2 cells; 2 µg/mL): 86.24 ± 1.502% (****); NR uptake (lysosomal activity), % of control (HepG2 cells; 16 µg/mL): 18.51 ± 2.592% (****); NR uptake (lysosomal activity), % of control (HepG2 cells; 32 µg/mL): 16.59 ± 4.378% (****)"
CCCCCCC(=O)c1ccccc1 [Heptanophenone],112.1,–,–,–,–
c1ccc2[nH]ccc2c1 [Indole],72.10,–,–,–,–
CC(=O)Nc1ccc(O)cc1 [Paracetamol],18.77,–,–,–,–
CCC(=O)c1ccccc1 [Propiophenone],77.40,–,–,–,–
Cn1c(=O)c2[nH]cnc2n(C)c1=O [Theophylline],17.90,–,–,–,–
CCCCC(=O)c1ccccc1 [Valerophenone],96.40,–,–,–,–
"CC1(C)S[C@@H]2[C@H](NC(=O)[C@H](N)c3ccccc3)C(=O)N2[C@H]1C(=O)O [[AMP], ampicillin]",–,–,–,–,MIC (S. aureus CECT 976 [5]): 1.5 µg/mL
"Cc1onc(-c2ccccc2)c1C(=O)N[C@@H]1C(=O)N2[C@@H]1SC(C)(C)[C@@H]2C(=O)O [[OXA], oxacillin]",–,–,–,–,MIC (S. aureus CECT 976 [5]): 0.48 µg/mL
